Source: patent publication US6380167B1, “Methods for anti-tumor therapy” (priority 1999, dated 2002)
“Also recorded” adds a separate entry of the source. Like-named read-outs stand apart in the source and are kept apart here.

Columns and labels:
[1] = test system: patient tumor cells; test: Comparison of cardiac glycosides in the anti-tumor assays; type: cell-based, human; details: cardiac glycosides tested
Description: Alamer Blue (Accumed International, Westlake Ohio) was then added to the cells at 1/10 the volume of the well, and the cells were further incubated at 37° C. for various times. Alamer Blue dye measures cellular re-dox reactions (ie: cellular respiration) whereby a spectral shift occurs upon reduction of the dye. (Excitation 530 nm; emission 590 nm)
The kinetics of cellular re-dox reactions were subsequently measured at various times, for example at 3 hours, 3 days, and 5 days post-dye addition.

[2] = toxic at concentrations above; cited from earlier work
[3] = test system: cells derived from ovarian tumor tissue; test: Alamer Blue cellular respiration assay on cells derived from ovarian tumor tissue; type: cell-based; details: Homo sapiens
Description: (§1) Excess tissue specimens obtained from a variety of organs and tissues such as colon, lung, kidney, stomach, and buttocks were obtained freshly at the time of surgery and samples were sent for pathological testing. For diagnosis and grading of tissue samples (ie: prior to processing), hematoxylin and eosin stained tissue sections were examined by a pathologist. If the diagnosis and grading of the tissue concurred with the determination made by the surgical pathologist that provided the tissue, then the tissue was used in the screen. If there was no agreement, then two additional pathologists served as referees. If no consensus was reached, then the tissue was discarded. […]
(§2) After tissue processing, the relative purity of the resulting cell suspension was determined by cytological examination after pap staining. […]
(§3) Cell preparations that passed histological and cytological examination for diagnosis, grading, and cell purity were thawed at 37° C. and resuspended in tissue culture medium designed to maintain the cells during the incubation period. The live and dead cells were counted and the cells were diluted in culture medium to 4.0×10^4 live cells/ml for tumor cells and 1.32×10^5 live cells/ml for normal cells. […]
(§4) The kinetics of cellular re-dox reactions were subsequently measured at various times, for example at 3 hours, 3 days, and 5 days post-dye addition. […]

[4] = in vivo; cited from earlier work
[5] = test system: cells isolated from sarcoma patients; test: Alamer Blue cellular respiration assay on cells isolated from sarcoma patients; type: cell-based; details: Homo sapiens
Description: as §1, §2, §3, §4

[6] = range over samples, read-out: IC50 (range)

In the case of `C[C@@H]1O[C@@H](O[C@H]2C[C@@H](O)[C@]3(CO)[C@H]4[C@H](O)C[C@]5(C)[C@@H](C6=CC(=O)OC6)CC[C@]5(O)[C@@H]4CC[C@]3(O)C2)[C@H](O)[C@H](O)[C@H]1O` [oubain], the “activity in the assays compared with digitoxin” value [1] is reported as “equally active”.
With `C[C@H]1O[C@@H](O[C@H]2[C@@H](O)C[C@H](O[C@H]3[C@@H](O)C[C@H](O[C@H]4CC[C@@]5(C)[C@H](CC[C@@H]6[C@@H]5C[C@@H](O)[C@]5(C)[C@@H](C7=CC(=O)OC7)CC[C@]65O)C4)O[C@@H]3C)O[C@@H]2C)C[C@H](O)[C@@H]1O` [digoxin] the “activity in the assays compared with digitoxin” value [1] was “Digitoxin appeared more active in the assays then digoxin”.
For `CC1OC(OC2C(O)CC(O[C@H]3CC[C@]4(C)C5CC[C@]6(C)[C@@H](C7=CC(=O)OC7)CC[C@]6(O)[C@@H]5CC[C@@H]4C3)O[C@@H]2C)C[C@H](O)[C@@H]1OC1CC(O)C(O)[C@@H](C)O1` (some centres unmarked) [digitoxin], the toxic concentration [2] is given as “above 35 ng/ml; also recorded: approximately 46 nM”, the IC50 ([3]; mean, read-out: IC50 (mean)) is given as 47 nM and the IC50 [3, 6] is given as 31 to 126 nM. For the same compound, the “bound to plasma proteins” value [4] was “greater than 95%”, the IC50 ([5]; mean, read-out: IC50 (mean)) was 25 nM and the IC50 [5, 6] was 13 to 48 nM.
